US20150216182A1, “COMPOSITIONS AND METHODS OF THE ATTRACTION AND REPULSION OF INSECTS” (Olfactor Laboratories, Inc., priority 2012, published 2015)
Where a name gives a salt, the structure may show the parent alone. Read-outs that look alike come from different tables or passages of the source.

How the values were obtained:
[1] = test system: bed bugs (Cimex lectularius); assay: bed bug repellency assay; type: in vivo; conditions: for % Rep (bed bug repellency): compound or combination on filter paper harborage, ten bed bugs
Protocol: Compounds and combinations of compounds of the present invention were assayed for their ability to repel bed bugs (Cimex lectularius) using a bed bug repellency assay. This assay takes advantage of the bed bug's natural tendency to seek harborage. Two petri dishes were obtained and the inner areas of each were sanded down (leaving the perimeter smooth.) Talc was applied on the perimeter and on the inside walls of the petri dishes with a small paint brush to prevent bed bugs from escaping. A cut off top portion of a solo bathroom cup was placed upside down in the center of one petri dish. A large plastic secondary container was gathered and a paper towel was laid down inside the bottom. The petri dish was then placed inside and ten bed bugs were placed inside the cut off portion of the solo cup. Next, two pieces of filter paper were cut down the middle to yield 4 equally sized halves. 3 pieces were placed inside a glass dish ([…]) and the remaining piece was placed in a separate dish. All 4 pieces were folded down the middle to create a “tent” or “harborage” when laid such that the folded crease faced up. 100 microliters of isopropyl alcohol was pipetted into 3 pieces of filter paper (all housed in the first glass dish.) In a separate 4 ml vial, 90 microliters of isopropyl alcohol was combined and vortexed with 10 microliters of the compound or compound combination being tested. 100 microliters of this solution [comprising a total of 100 mg of compound(s)] was pipetted onto the filter paper in the separate dish. All filter papers were then allowed to dry. Once dry, experiments were conducted first with two filter paper halves comprising only the isopropyl alcohol (control experiment) and then with the remaining filter paper halves [one with only isopropyl alcohol and one comprising the test compound(s).] Filter paper halves were placed on opposing sides of experimental petri dishes and bed bugs were allowed to move freely within the dishes for 5 minutes. Movement of bed bugs beneath each filter paper tent was recorded. […] In the Table, “Rep” refers to repellency and “Cmpd” refers to compound.

[2] = test system: female mosquitoes; assay: whole plant or invertebrate; conditions: 2 h; for mortality at 200 µg/mL: read-out: % mortality with 0.2 mg/ml; for mortality at 2000 µg/mL: read-out: % mortality with 2 mg/ml
[3] = test system: cpA neurons; assay: extracellular single-sensillum electrophysiology: activation of cpA neuronal activity; conditions: for Class: Table 6, single compounds, increase over baseline cpA neuronal activity
[4] = test system: larvae; assay: larvicidal activity assay; type: in vivo; conditions: for pest or weed control at 0.25 %: read-out: % Lethality with 0.25% compound conc.; for pest or weed control at 100 ppm: read-out: % Lethality at 100 ppm
Protocol: A 6-well plate (Corning Life Sciences, Tewksbury, Mass.) is used to test a compound's larvicidal activity. […] After a 24 hour exposure, the number of dead larvae are counted and recorded.
The results are presented in Table 17 as % lethality (the number of dead larvae divided by the total number of larvae).

[5] = test system: cpA neurons; assay: extracellular single-sensillum electrophysiology: inhibition of CO2-responsive (cpA) neuronal activity; conditions: for Class: Table 10, single compounds, percent reduction in cpA activity compared to baseline; for Class (inhibitor class of the individual component): Inh = inhibitor
[6] = 0.25% compound, 24 hour exposure, dead larvae / total larvae
[7] = 100 ppm compound, 24 hour exposure, dead larvae / total larvae
[8] = Table 13, single component alone
[9] = Table 16, single component alone

Row | SMILES | % Rep (bed bug repellency) [1] | mortality at 200 µg/mL [2] | mortality at 2000 µg/mL [2] | pest or weed control at 0.25 % [4, 6] | pest or weed control at 100 ppm [4, 7] | further results
1 | O=CCc1ccccc1 [OLI0121] | 100% | – | – | – | – | –
2 | O=CCc1ccccc1 [OLI0028, phenylacetaldehyde] | 50% | 0% | 0% | – | – | Class [3]: Moderate Activator (Moderate activators yield an increase in neuronal activity that is between 40 and 60 spk/sec over baseline neuronal activity); Comp B Class ([3]; Table 9, component B tested individually): Mod
3 | COC(=O)/C=C/c1ccccc1 [OLI0114, methyl trans-cinnamate] | 70% | 0% | 100% | 100% | 0% | –
4 | CCCCC=O [OLI0066, valeraldehyde] | 33% | 0% | 0% | 35% | 0% | Class [3]: Mild Activator (mild activators yield an increase in neuronal activity that is between 20 and 40 spk/sec over baseline neuronal activity)
5 | COc1ccccc1O [OLI0012, guaiacol] | 100% | 0% | 0% | 100% | 0% | Class [3]: Strong Activator (strong activators yield an increase in activity that is >60 spk/sec over baseline neuronal activity)
6 | CCOC(=O)C(C)O (stereo not drawn) [OLI0010, ethyllactate] | 37% | 0% | 0% | 0% | 0% | Class [3]: Strong Activator (strong activators yield an increase in activity that is >60 spk/sec over baseline neuronal activity)
7 | CC/C=C\CCOC(C)=O [OLI0073, cis-3-hexenyl acetate] | – | 0% | 0% | 95% | 0% | Class [5]: Moderate Inhibitor (moderate inhibitors (reducing activity by 40-60%)); Class (inhibitor class of the individual component) [5, 8]: Mod
8 | O=C/C=C/c1ccccc1 [OLI0065, trans-cinnamaldehyde] | 100% | 0% | 0% | – | – | pest or weed control at 100 ppm ([4]; 24 h): 0%; pest or weed control at 0.25 % ([4]; 24 h): 100%; Class [3]: Mild Activator (mild activators yield an increase in neuronal activity that is between 20 and 40 spk/sec over baseline neuronal activity)
9 | CC1OCCC1=O (stereo not drawn) [OLI0004, 2-methyltetrahydrofuran-3-one] | 37% | 0% | 0% | 0% | 0% | Class [3]: Strong Activator (strong activators yield an increase in activity that is >60 spk/sec over baseline neuronal activity)
10 | CCOC(=O)C=Cc1ccccc1 [OLI0110, ethyl cinnamate] | 59% | 0% | 100% | 100% | 0% | –
11 | O=C(C=Cc1ccccc1)OCc1ccccc1 [OLI0120, benzyl cinnamate] | 21% | 0% | 0% | 0% | 0% | –
12 | CC(C)=CCC/C(C)=C/CO [geraniol] | – | – | – | – | – | ability to repel bed bugs ([1]; 100 microliters solution on filter paper tent, 5 minutes): surprisingly strong ability to repel bed bugs
13 | CCC(=O)OC/C=C/c1ccccc1 [OLI0105, trans-cinnamyl propionate] | 35% | 0% | 85% | 100% | 0% | –
14 | CCCCOC=O [OLI0007, butyl formate] | 6% | 0% | 0% | – | – | pest or weed control at 100 ppm ([4]; 24 h): 0%; pest or weed control at 0.25 % ([4]; 24 h): 0%; Class [3]: Strong Activator (strong activators yield an increase in activity that is >60 spk/sec over baseline neuronal activity)
15 | Cc1ccc(C=O)o1 [OLI0006, 5-methyl furfural] | 47% | 0% | 0% | 100% | 0% | Class [3]: Strong Activator (strong activators yield an increase in activity that is >60 spk/sec over baseline neuronal activity)
16 | CCC/C=C\CCOC(C)=O [OLI0078, (Z)-hept-3-enylacetate] | – | – | – | – | – | Class [5]: Mild Inhibitor (mild inhibitors (reducing activity by 20-40%)); Class (inhibitor class of the individual component) [5, 8]: Mild; Class (inhibitor class of the individual component) [5, 9]: Mild
17 | CC1CCC(C(C)C)C(O)C1 (stereo not drawn) [OLI0115, Menthol] | 60% | 0% | 0% | – | – | pest or weed control at 100 ppm ([4]; 24 h): 0%; pest or weed control at 0.25 % ([4]; 24 h): 100%
18 | O=COCC=Cc1ccccc1 [OLI0107, cinnamyl formate] | 100% | 0% | 100% | 100% | 0% | –
19 | CCC(=O)OCC=Cc1ccccc1 [OLI0109, cinnamyl propionate] | 41% | 0% | 100% | 100% | 0% | –
20 | C=CCOC(=O)C=Cc1ccccc1 [OLI0104, allyl cinnamate] | 54% | 0% | 45% | 100% | 15% | –
21 | CCCCCCOC(=O)CCC [OLI0119, hexyl butyrate] | 59% | 0% | 0% | 15% | 0% | –
22 | COC1=C(C)OC(C)C1=O (stereo not drawn) [OLI0081, 2,5-dimethyl-4-methoxy-3(2H) furanone] | – | – | – | – | – | Class [5]: Mild Inhibitor (mild inhibitors (reducing activity by 20-40%))
23 | CCCC(=O)OC(C)(C)Cc1ccccc1 [OLI0082, alpha,alpha-dimethyl phenethyl butyrate] | – | – | – | – | – | Class [5]: Mild Inhibitor (mild inhibitors (reducing activity by 20-40%)); Class (inhibitor class of the individual component) [5, 8]: Mild
24 | COC(=O)C=Cc1ccccc1 [OLI0113, methyl cinnamate] | 68% | 0% | 100% | 100% | 0% | –
25 | CCCCCCCCO [OLI0080, 1-octanol] | – | – | – | – | – | Class [5]: Mild Inhibitor (mild inhibitors (reducing activity by 20-40%)); Class (inhibitor class of the individual component) [5, 8]: Mild; Class (inhibitor class of the individual component) [5, 9]: Mild
26 | CCC(=O)OCCc1ccccc1 [OLI0076, Phenethyl propionate] | – | 0% | 100% | 100% | 0% | Class [5]: Moderate Inhibitor (moderate inhibitors (reducing activity by 40-60%)); Class (inhibitor class of the individual component) [5, 8]: Mod; Class (inhibitor class of the individual component) [5, 9]: Mod; inhibitor class of single compound ([5]; single compound): moderate inhibitor (40-60% reduction in neuronal activity as compared to baseline activity of the neuron)
27 | COc1ncccc1C | – | – | – | – | – | effect on CO2-receptor activity (FIG. 1) ([5]; 1% concentration in paraffin oil): inhibitor
